In patent US6875761B2 (Eisai Co., Ltd., priority 1997, dated 2005):
Where a name gives a salt, the structure may show the parent alone.

Experiments:
serotonin 2 receptor = target: T1, serotonin 2 receptor (Rattus norvegicus, UniProt P14842); assay: Binding test on [3H] ketanserin, cerebral cortex receptor fraction; design: species or system SD rats; conditions: 0.3 nM [3H] ketanserin, 37° C. 15 min, read-out: 5HT2
T1 construct: To the receptor fraction of the cerebral cortex were added a test compound and 0.3 nM of [^3H] ketanserin; from tissue; host or cells: rat cerebral cortex membrane fraction

serotonin 1A receptor = target: T2, serotonin 1A receptor (Rattus norvegicus, UniProt P19327); assay: Binding test on [3H] 8-hydroxy-dipropylaminotetralin, hippocampus receptor fraction; design: species or system SD rats; conditions: rat hippocampus receptor fraction, 0.5 nM [3H] 8-OH-DPAT, room temperature 30 min; read-out: 5HT1
T2 construct: To the receptor fraction of the hippocampus were added a test compound and 0.5 nM of [^3H]; 8-hydroxy-dipropylaminotetralin; from tissue; host or cells: rat hippocampus membrane fraction
T2 sequence (P19327 1-422): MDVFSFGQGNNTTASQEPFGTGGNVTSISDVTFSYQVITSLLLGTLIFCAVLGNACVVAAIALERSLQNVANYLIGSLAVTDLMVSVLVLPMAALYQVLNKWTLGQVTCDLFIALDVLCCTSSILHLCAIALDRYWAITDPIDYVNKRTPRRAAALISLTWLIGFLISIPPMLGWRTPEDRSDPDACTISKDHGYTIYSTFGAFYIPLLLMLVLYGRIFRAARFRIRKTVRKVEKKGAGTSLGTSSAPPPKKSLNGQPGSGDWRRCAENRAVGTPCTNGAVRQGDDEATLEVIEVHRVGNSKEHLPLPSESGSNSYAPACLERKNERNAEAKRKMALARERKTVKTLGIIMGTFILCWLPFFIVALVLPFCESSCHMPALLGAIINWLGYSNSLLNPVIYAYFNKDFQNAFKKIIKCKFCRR

T1 sequence (P14842 whole entry): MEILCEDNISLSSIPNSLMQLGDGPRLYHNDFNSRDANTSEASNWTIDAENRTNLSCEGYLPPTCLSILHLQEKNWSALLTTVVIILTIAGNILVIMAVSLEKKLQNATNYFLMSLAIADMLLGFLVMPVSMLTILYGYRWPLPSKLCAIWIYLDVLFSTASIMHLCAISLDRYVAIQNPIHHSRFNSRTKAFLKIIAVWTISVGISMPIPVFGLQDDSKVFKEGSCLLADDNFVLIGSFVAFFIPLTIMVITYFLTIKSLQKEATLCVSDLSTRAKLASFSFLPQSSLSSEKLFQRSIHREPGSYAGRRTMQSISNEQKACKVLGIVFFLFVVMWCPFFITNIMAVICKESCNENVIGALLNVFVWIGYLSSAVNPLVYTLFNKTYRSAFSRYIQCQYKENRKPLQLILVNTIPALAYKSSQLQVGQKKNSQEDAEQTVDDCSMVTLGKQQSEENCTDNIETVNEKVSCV

SMILES	Ki (serotonin 2 receptor) [nM]	Ki (serotonin 1A receptor) [nM]
CCN1CCN(c2nc(-c3ccc(OCCCC(C)(C)O)cc3)cc3sccc23)CC1 [Example 292, 6-[4-(4-methyl-4-hydroxypentyloxy)phenyl]-4-(4-ethylpiperazin-1-yl)thieno[3,2-c]pyridine]	22.4	68.6
CCN1CCN(c2nc(-c3cccc(OCCO)c3)cc3ccoc23)CC1 [Example 298, 7-(1-ethylpiperazin-4-yl)-5-[3-(2-hydroxyethoxy)phenyl]furo[2,3-c]pyridine dihydrochloride]	5.37	1.72
CCN1CCN(c2nc(-c3ccc(CCCO)cc3)cc3ccoc23)CC1 [Example 299, 7-(1-ethylpiperazin-4-yl)-5-[4-(3-hydroxypropyl)phenyl]furo[2,3-c]pyridine dihydrochloride]	30.1	0.37
CCN1CCN(c2nc(-c3ccc(OCCO)cc3)cc3ccoc23)CC1 [Example 301, 7-(1-Ethylpiperazin-4-yl)-5-[4-(2-hydroxyethoxy)phenyl]furo[2,3-c]pyridine oxalate]	12.7	9.15
CCN1CCN(c2nc(-c3ccc(O[C@H](C)CO)cc3)cc3ccoc23)CC1 [Example 302, 7-(1-ethylpiperazin-4-yl)-5-{4-[(R)-2-hydroxy-1-methylethoxy]phenyl}furo[2,3-c]pyridine dihydrochloride]	30	0.53
CCN1CCN(c2nc(-c3ccc(O[C@@H](C)CO)cc3)cc3ccoc23)CC1 [Example 303, 7-(1-ethylpiperazin-4-yl)-5-{4-[(S)-2-hydroxy-1-methylethoxy]phenyl}furo[2,3-c]pyridine dihydrochloride]	44.4	0.53
CCN1CCN(c2nc(/C=C/c3ccc(OCCO)cc3)cc3ccoc23)CC1 [Example 307]	11.5	7.7
CCN1CCN(c2nc(/C=C/c3ccccc3OCCO)cc3ccoc23)CC1 [Example 308, oxalate]	19.5	6.49
CCN1CCN(c2nc(-c3ccc(OCC(C)(C)O)cc3)cc3ccccc23)CC1 [Example 309, 1-(1-ethylpiperazin-4-yl)-3-[4-(2-hydroxy-2-methylpropoxy)phenyl]isoquinoline dihydrochloride]	0.01	91
CCN1CCN(c2nc(C#CC(O)c3ccccc3)cc3ccccc23)CC1 (centres unmarked) [Example 310, 1-(1-ethylpiperazin-4-yl)-3-(3-phenyl-3-hydroxy-1-propynyl)isoquinoline hydrochloride]	10.2	4.4
CCN1CCN(c2nc(-c3ccc(OCCCO)cc3)cc3ccoc23)CC1 [Example 317, 7-(1-ethylpiperazin-4-yl)-5-[4-(3-hydroxypropoxy)phenyl]furo[2,3-c]pyridine dihydrochloride]	105	12.2
CCN1CCN(c2nc(-c3cccc(OCCO)c3)cc3ccccc23)CC1 [Example 329, 1-(4-Ethylpiperazin-1-yl)-3-[3-(2-hydroxyethoxy)phenyl]isoquinoline dihydrochloride]	73.6	31.6
CCN1CCN(c2nc(-c3ccc4c(c3)OCCO4)cc3ccccc23)CC1 [Example 332, 1-(4-ethylpiperazin-1-yl)-3-(3,4-ethylenedioxyphenyl)isoquinoline dihydrochloride]	12.1	13.9
CCN1CCN(c2nc(-c3ccc(CCCOC)cc3)cc3ccccc23)CC1 [Example 333, 1-(4-ethylpiperazin-1-yl)-3-[4-(3-(methoxypropyl)phenyl]isoquinolinedihydrochloride]	6.1	17.1
CCN1CCN(c2nc(-c3cc(OC)ccn3)cc3ccccc23)CC1 [Example 335, 1-(4-ethylpiperazin-1-yl)-3-(4-methoxypyridin-2-yl)isoquinoline dihydrochloride]	20.3	60.1
CCN1CCN(c2nc(-c3ccc(OCC4OCCO4)cc3)cc3ccccc23)CC1 [Example 336, 1-(4-ethylpiperazin-1-yl)-3-[4-(1,3-dioxolan-2-ylmethyloxy)phenyl]isoquinoline]	2.6	45.7
CCN1CCN(c2nc(-c3ccc(OCC(O)CO)cc3)cc3ccccc23)CC1 (centres unmarked) [Example 337, 1-(4-ethylpiperazin-1-yl)-3-[4-(2,3-dihydroxypropoxy)phenyl]isoquinoline dihydrochloride]	5.6	25.7

SMILES	Ki (serotonin 2 receptor) [nM]	Ki (serotonin 1A receptor) [nM]
CCN1CCN(c2nc(-c3ccc(OCC(N)=O)cc3)cc3ccccc23)CC1 [Example 338, 1-(4-ethylpiperazin-1-yl)-3-(4-carbamoylmethoxyphenyl)isoquinoline dihydrochloride]	61.9	14.1
CCN1CCN(c2nc(-c3ccc(OC(F)(F)F)cc3)cc3ccccc23)CC1 [Example 339, 1-(4-ethylpiperazin-1-yl)-3-(4-trifluoromethoxyphenyl)isoquinoline dihydrochloride]	18.9	214
CCN1CCN(c2nc(-c3ccc(OCCO)c(OC)c3)cc3ccccc23)CC1 [Example 340, 1-(4-ethylpiperazin-1-yl)-3-[4-(2-hydroxyethoxy)-3-methoxyphenyl]isoquinoline dihydrochloride]	20.7	26
CCN1CCN(c2nc(-c3ccc(S(C)(=O)=O)cc3)cc3ccccc23)CC1 [Example 342, 1-(4-ethylpiperazin-1-yl)-3-(4-methylsulfonylphenyl)isoquinoline dihydrochloride]	14.9	6.2
CCN1CCN(c2nc(-c3ccc(OCC(O)COC)cc3)cc3ccccc23)CC1 (centres unmarked) [Example 343, 1-(4-ethylpiperazin-1-yl)-3-[4-(2-hydroxy-3-methoxypropoxy)phenyl]isoquinoline dihydrochloride]	5.7	35.7
CCN1CCN(c2nc(-c3ccc(OC)nc3)cc3ccccc23)CC1 [Example 344, 1-(4-ethylpiperazin-1-yl)-3-(2-methoxypyridin-5-yl)isoquinoline]	35.9	10.7
CCN1CCN(c2nc(-c3ccc(C(C)(C)O)cc3)cc3ccccc23)CC1 [Example 345, 1-(4-ethylpiperazin-1-yl)-[4-(1-hydroxy-1-methylethyl)phenyl]isoquinoline]	1.4	11.3
CCN1CCN(c2nc(-c3ccc(C(=O)NCCO)cc3)cc3ccccc23)CC1 [Example 346, 1-(4-ethylpiperazin-1-yl)-3-{4-(N-(2-hydroxyethyl)carbamoyl]phenyl}isoquinoline dihydrochloride]	41.7	31.8
CCN1CCN(c2nc(-c3ccc(S(=O)(=O)NCCO)cc3)cc3ccccc23)CC1 [Example 347, 1-(4-ethylpiperazin-1-yl)-3-{4-[N-(2-hydroxyethyl)sulfamoyl]phenyl}isoquinoline dihydrochloride]	24.2	8
CCN1CCN(c2nc(-c3ccc(C(C)O)cc3)cc3ccccc23)CC1 (centres unmarked) [Example 348, 1-(4-ethylpiperazin-1-yl)-3-[4-(1-hydroxyethyl)phenyl]isoquinoline dihydrochloride]	1.6	11
CCCS(=O)(=O)c1ccc(-c2cc3ccccc3c(N3CCN(CC)CC3)n2)cc1 [Example 349, 1-(4-ethylpiperazin-1-yl)-3-[4-propylsulfonyl)phenyl]isoquinoline dihydrochloride]	5	3.2
CCN1CCN(c2nc(-c3ccc(S(=O)(=O)CCCOC)cc3)cc3ccccc23)CC1 [Example 350, 1-(4-ethylpiperazin-1-yl)-3-{4-[(3-methoxypropyl)sulfonyl]phenyl}isoquinoline]	16.7	2.6
CCN1CCN(c2nc(-c3ccc(CCO)cc3)cc3ccccc23)CC1 [Example 351, 1-(4-ethylpiperazin-1-yl)-3-[4-(2-hydroxyethyl)phenyl]isoquinoline dihydrochloride]	6.4	15.7
CCN1CCN(c2nc(-c3ccc(S(=O)(=O)CCCO)cc3)cc3ccccc23)CC1 [Example 352, 1-(4-ethylpiperazin-1-yl)-3-[4-(3-hydroxypropyl)sulfonylphenyl]isoquinoline dihydrochloride]	54.6	4
CCCNS(=O)(=O)c1ccc(-c2cc3ccccc3c(N3CCN(CC)CC3)n2)cc1 [Example 353, 1-(4-ethylpiperazin-1-yl)-3-[4-(N-propylsulfamoyl)phenyl]isoquinoline dihydrochloride]	0.24	1.1
CCN1CCN(c2nc(-c3ccc(S(=O)(=O)NCCOC)cc3)cc3ccccc23)CC1 [Example 354, 1-(4-ethylpiperazin-1-yl)-3-{4-[N-(2-methoxyethyl)sulfamoyl]phenyl}isoquinoline dihydrochloride]	1.3	3
CCN1CCN(c2nc(-c3ccc(S(=O)(=O)CCCF)cc3)cc3ccccc23)CC1 [Example 355, 1-(4-ethylpiperazin-1-yl)-3-[4-(3-fluoropropyl)sulfonylphenyl]isoquinoline dihydrochloride]	4.9	2.6
